Consider 23 molecules from US5461067A, “Retroviral protease inhibiting compounds” (priority 1994, dated 1995).

Read-outs that look alike come from different tables or passages of the source.

For orientation: inhibition means the relative decrease from the control value, in per cent.

Series [1] in a line: Cytotoxicity in MT4 cells. It is filed as cell-based. The note with it: human, concentration at which 50% of the cells remain viable, read-out: LC50 (the source's name). The text has this: (§1) The IC50 is the concentration of compound that gives 50% inhibition of the cytopathic effect of HIV. The LC50 is the concentration of compound at which 50% of the cells remain viable.
In the next series the target is HIV-1 protease (Human immunodeficiency virus type 1 group M subtype B, UniProt P04585). The series can be described thus: Fluorogenic assay for screening inhibitors of HIV protease.
For another series, the system named is HIV-13B in MT4 cells. Description: Anti-HIV activity (inhibition of cytopathic effect of HIV) in MT4 cells. It is filed as cell-based. The note with it: Human immunodeficiency virus 1, concentration giving 50% inhibition of cytopathic effect of HIV.
Excerpt: as §1

The mark [2] stands for this setting: pH 4.5, read-out: Percent Inhibition.

Procedure for HIV-1 protease: The inhibitory potency of the compounds of the invention can be determined by the following method.
A compound of the invention is dissolved in DMSO and a small aliquot further diluted with DMSO to 100 times the final concentration desired for testing. The reaction is carried out in a 6×50 mm tube in a total volume of 300 microliters. The final concentrations of the components in the reaction buffer are: 125 mM sodium acetate, 1M sodium chloride, 5 mM dithiothreitol, 0.5 mg/ml bovine serum albumin, 1.3 μM fluorogenic substrate, 2% (v/v) dimethylsulfoxide, pH 4.5. After addition of inhibitor, the reaction mixture is placed in the fluorometer cell holder and incubated at 30° C. for several minutes. The reaction is initiated by the addition of a small aliquot of cold HIV protease. The fluorescence intensity (excitation 340 nm, emmision 490 nM) is recorded as a function of time. The reaction rate is determined for the first six to eight minutes. The observed rate is directly proportional to the moles of substrate cleaved per unit time. The percent inhibition is 100×(1-(rate in presence of inhibitor)/(rate in absence of inhibitor)).

On to `CC(C)(C)OC(=O)NN(Cc1ccccc1)C[C@H](O)[C@H](Cc1ccccc1)NC(=O)OCc1ccccc1` [Example 1F, 2-(t-Butyloxycarbonyl)amino-4S-hydroxy-5S-(benzyloxycarbonyl)amino-1,6-diphenyl-2-azahexane], for which the CC50 in series [1] is over 100000 nM. The results for the IC50 against HIV-1 protease and with HIV-13B in MT4 cells were 5.1 nM and 36000 nM, respectively. Further, the inhibition at 0.0051 µM at HIV-1 protease (setting [2]) is 50%.

`CC(C)[C@H](NC(=O)OCc1ccccn1)C(=O)N[C@@H](Cc1ccccc1)[C@@H](O)CN(Cc1ccccc1)NC(=O)OC(C)(C)C` [Example 2E, 5S-N-((2-Pyridinyl)methoxycarbonyl)valinylamino-2-t-butyloxycarbonylamino-4S-hydroxy-1,6-diphenyl-2-azahexane]: in series [1], the CC50 was 56000 nM. Further, the IC50 against HIV-1 protease is 0.5 nM; with HIV-13B in MT4 cells, 780 to 1230 nM. Also, the inhibition at 0.0005 µM on HIV-1 protease (setting [2]) was 50%.

At HIV-1 protease, `CC(C)(C)OC(=O)NN(Cc1ccccc1)C[C@H](O)[C@H](Cc1ccccc1)NC(=O)OCc1cccnc1` [Example 4B, 5S-((3-Pyridinyl)methoxycarbonyl)amino-2-t-butyloxycarbonylamino-4S-hydroxy-1,6-diphenyl-2-azahexane] gave an IC50 of 3.9 nM. At HIV-1 protease (setting [2]), the inhibition at 0.0039 µM worked out at 50%.

Consider `CC(C)[C@H](NC(=O)OCc1ccccn1)C(=O)N[C@@H](Cc1ccccc1)[C@@H](O)CN(Cc1ccccc1)NC(=O)OCc1cccnc1` [Example 5B, 5S-N-((2-Pyridinyl)methoxycarbonyl)valinylamino-2-((N-3-pyridinyl)methoxycarbonyl)amino-4S-hydroxy-1,6-diphenyl-2-azahexane], for which the CC50 in series [1] was over 100000 nM. The inhibition at 0.0005 µM at HIV-1 protease (setting [2]) worked out at 60%. For the same molecule, in the series with HIV-13B in MT4 cells, the IC50 is 150 to 260 nM.

Take `CC(C)c1nc(CN(C)C(=O)N[C@H](C(=O)NN(Cc2ccccc2)C[C@H](O)[C@H](Cc2ccccc2)NC(=O)OCc2ccccc2)C(C)C)cs1` [Example 6H, 5S-(Benzyloxycarbonyl)amino-2-N-(((N-methyl-N-((2-isopropyl-4-thiazolyl)methyl)amino)carbonyl)-L-valinyl)amino-4S-hydroxy-1,6-diphenyl-2-azahexane]: at HIV-1 protease (setting [2]), the inhibition at 0.0005 µM was 73%.

Regarding `CC(C)(C)OC(=O)NN(Cc1ccccc1)C[C@H](O)[C@H](Cc1ccccc1)NC(=O)OCc1cncs1` [Example 7F, 5S-(((5-Thiazolyl)methoxy)carbonyl)amino-2-(t-butyloxycarbonyl)amino-4S-hydroxy-1,6-diphenyl-2-azahexane], the CC50 in series [1] stood at 44000 nM. Also, the IC50 against HIV-1 protease was 4.4 nM; in the series with HIV-13B in MT4 cells, 6500 to 18200 nM. Also, the inhibition at 0.0044 µM on HIV-1 protease (setting [2]) turned out to be 50%.

With `CC(C)c1nc(CN(C)C(=O)N[C@H](C(=O)NN(Cc2ccccc2)C[C@H](O)[C@H](Cc2ccccc2)NC(=O)OCc2cncs2)C(C)C)cs1` [Example 8, 5S-(((5-Thiazolyl)methoxy)carbonyl)amino-2-N-((N-methyl-N-((2-isopropyl-4-thiazolyl)methyl)amino)carbonyl)-L-valinylamino-4S-hydroxy-1,6-diphenyl-2-azahexane], the CC50 in series [1] turned out to be 17000 nM. The inhibition at 0.0005 µM on HIV-1 protease (setting [2]) was 77%. This molecule also displayed an IC50 in the series on HIV-13B in MT4 cells of 100 to 110 nM.

With `CC(C)c1nc(CN(C)C(=O)N[C@H](C(=O)N[C@@H](Cc2ccccc2)[C@@H](O)CN(Cc2ccccc2)NC(=O)OC(C)(C)C)C(C)C)co1` [Example 9F, 5S-N-((N-Methyl-N-((2-isopropyl-4-oxazolyl)methyl)amino)carbonyl)-L-valinylamino-2-N-(t-butyloxycarbonyl)amino-4S-hydroxy-1,6-diphenyl-2-azahexane], the CC50 in series [1] stood at 19000 nM. In addition, the inhibition at 0.0005 µM on HIV-1 protease (setting [2]) is 61%. Moreover, the IC50 in the series with HIV-13B in MT4 cells was 460 to 1000 nM.

As for `CCc1cccc(CN(C)C(=O)N[C@H](C(=O)NN(Cc2ccccc2)C[C@H](O)[C@H](Cc2ccccc2)NC(=O)OCc2ccccc2)C(C)C)n1` [Example 10, 5S-(Benzyloxycarbonyl)amino-2-N-((N-methyl-N-((6-ethyl-2-pyridinyl)methyl)amino)carbonyl)-L-valinylamino-4S-hydroxy-1,6-diphenyl-2-azahexane], in series [1], the CC50 was found to be 19000 nM. The IC50 on HIV-1 protease is 0.5 nM; in the series with HIV-13B in MT4 cells, 830 to 1100 nM. Further, on HIV-1 protease (setting [2]), the inhibition at 0.0005 µM was determined as 50%.

At HIV-1 protease, `COc1ccc(CN(C[C@H](O)[C@H](Cc2ccccc2)NC(=O)OCc2ccccc2)NC(=O)OC(C)(C)C)cc1` [Example 14B, 5S-N-(Benzyloxycarbonyl)amino-2-N-(t-butyloxycarbonyl)amino-4S-hydroxy-1-p-methoxyphenyl-6-phenyl-2-azahexane] registered an IC50 of 10 nM. Moreover, at HIV-1 protease (setting [2]), the inhibition at 0.01 µM is 50%.

For the molecule `COc1cccc(CN(C[C@H](O)[C@H](Cc2ccccc2)NC(=O)OCc2ccccc2)NC(=O)OC(C)(C)C)c1` [Example 17B], the inhibition at 0.012 µM at HIV-1 protease (setting [2]) was 50%. The IC50 at HIV-1 protease (read-out: Inhibitor Concentration (at 50 Percent Inhibition), concentration printed with 50 percent inhibition, pH 4.5, 30° C.) amounted to 12 nM.

For `CC(C)(C)OC(=O)NN(Cc1ccoc1)C[C@H](O)[C@H](Cc1ccccc1)NC(=O)OCc1cncs1` [Example 47], at HIV-1 protease, the IC50 amounted to 2.1 nM. Besides, the inhibition at 0.0021 µM on HIV-1 protease (setting [2]) stood at 50%.

On to `CC(C)c1nc(CN(C)C(=O)N[C@H](C(=O)NN(Cc2ccoc2)C[C@H](O)[C@H](Cc2ccccc2)NC(=O)OCc2cncs2)C(C)C)cs1` [Example 48, 5S-(((5-Thiazolyl)methoxy)carbonyl)amino-2-N-(((N-methyl-N-( (2-isopropyl-4-thiazolyl)methyl)amino)carbonyl)-L-valinyl)amino-4S-hydroxy-1-(3-furanyl)-6-phenyl-2-azahexane], for which the inhibition at 0.0005 µM at HIV-1 protease (setting [2]) was found to be 66%. The IC50 with HIV-13B in MT4 cells fell in the range of 88 to 114 nM.

For `CC(C)c1nc(COC(=O)N[C@H](C(=O)NN(Cc2ccoc2)C[C@H](O)[C@H](Cc2ccccc2)NC(=O)OCc2cncs2)C(C)C)co1` [Example 49E, 5S-(((5-Thiazolyl)methoxy)carbonyl)amino-2-((N-2-isopropyl-4-oxazolyl)methoxycarbonyl)amino-4S-hydroxy-1-(3-furanyl)-6-phenyl-2-azahexane], on HIV-1 protease (setting [2]), the inhibition at 0.0005 µM worked out at 75%. Further, in the series with HIV-13B in MT4 cells, the IC50 is 29 to 32 nM.

For the molecule `CC(C)c1nc(COC(=O)N[C@H](C(=O)NN(Cc2ccccc2)C[C@H](O)[C@H](Cc2ccccc2)NC(=O)OCc2cncs2)C(C)C)co1` [Example 50, 5 S-(((5-Thiazolyl)methoxy)carbonyl)amino-2-((N-2-isopropyl-4-oxazolyl)methoxycarbonyl)amino-4S-hydroxy-1,6-diphenyl-2-azahexane], the inhibition at 0.0005 µM at HIV-1 protease (setting [2]) amounted to 73%. The same molecule registered an IC50 in the series with HIV-13B in MT4 cells of 16 to 31 nM.

For `CC(C)c1nc(COC(=O)N[C@H](C(=O)N[C@@H](Cc2ccccc2)[C@@H](O)CN(Cc2ccc(F)cc2)NC(=O)OC(C)(C)C)C(C)C)co1` [Example 51D], the figures for the IC50 on HIV-1 protease and in the series with HIV-13B in MT4 cells were 0.5 nM and 209 to 274 nM, respectively. Besides, on HIV-1 protease (setting [2]), the inhibition at 0.0005 µM stood at 50%.

Molecule `CC(C)(C)OC(=O)NN(Cc1ccc(O)cc1)C[C@H](O)[C@H](Cc1ccccc1)NC(=O)OCc1ccccc1` [Example 52, 5S-(Benzyloxycarbonyl)amino-2-(t-butyloxycarbonyl)amino-4S-hydroxy-1-(4-hydroxyphenyl)-6-phenyl-2-azahexane] showed an IC50 on HIV-1 protease of 7.5 nM. Moreover, the inhibition at 0.0075 µM on HIV-1 protease (setting [2]) turned out to be 50%.

For the molecule `CC(C)c1nc(COC(=O)N[C@H](C(=O)N[C@@H](Cc2ccccc2)[C@@H](O)CN(Cc2ccc(O)cc2)NC(=O)OC(C)(C)C)C(C)C)co1` [Example 53, 5S-(((2-Isopropyl-4-oxazolyl)methoxycarbonyl)-valinyl)amino-2-(t-butyloxycarbonyl)amino-4S-hydroxy-1-(4-hydroxyphenyl)-6-phenyl-2-azahexane], on HIV-1 protease (setting [2]), the inhibition at 0.0005 µM is 57%. For the same molecule, in the series on HIV-13B in MT4 cells, the IC50 is 55 nM.

Turning to `CC(C)c1nc(CN(C)C(=O)N[C@H](C(=O)NN(Cc2ccc(O)cc2)C[C@H](O)[C@H](Cc2ccccc2)NC(=O)OCc2cncs2)C(C)C)cs1` [Example 54B], the inhibition at 0.0005 µM at HIV-1 protease (setting [2]) turned out to be 56%. In the series with HIV-13B in MT4 cells, this molecule registered an IC50 of 37 to 67 nM.

As for `CC(C)(C)OC(=O)NN(Cc1cccc(O)c1)C[C@H](O)[C@H](Cc1ccccc1)NC(=O)OCc1ccccc1` [Example 55C, 5S-(Benzyloxycarbonyl)amino-2-(t-butyloxycarbonyl)amino-4S-hydroxy-1-(3-hydroxyphenyl)-6-phenyl-2-azahexane], the IC50 against HIV-1 protease is 7.4 nM. Moreover, the inhibition at 0.0074 µM on HIV-1 protease (setting [2]) came out at 50%.

As to `CC(C)c1nc(CN(C)C(=O)N[C@H](C(=O)NN(Cc2cccc(O)c2)C[C@H](O)[C@H](Cc2ccccc2)NC(=O)OCc2cncs2)C(C)C)cs1` [Example 56B, 5S-(((5-Thiazolyl)methoxy)carbonyl)amino-2-N-((((N-methyl-N-2-isopropyl-4-thiazolyl)methyl)amino)carbonyl)-L-valinylamino-4S-hydroxy-1-(3-hydroxyphenyl)-6-phenyl-2-azahexane], the inhibition at 0.0005 µM at HIV-1 protease (setting [2]) came to 49%.

On to `CC(C)(C)OC(=O)NN(Cc1ccc(OCCN2CCOCC2)cc1)C[C@H](O)[C@H](Cc1ccccc1)NC(=O)OCc1ccccc1` [Example 57C, 2-(t-Butyloxycarbonyl)amino-5S-(benzyloxycarbonyl)amino-4S-hydroxy-1-(4-((2-morpholinyl)ethoxy)phenyl)-6-phenyl-2-azahexane], for which, on HIV-1 protease, the IC50 was determined as 9.9 nM. On HIV-1 protease (setting [2]), the inhibition at 0.0099 µM is 50%.

On HIV-1 protease, `CC(C)(C)OC(=O)NN(Cc1ccc(-c2ccccc2)cc1)C[C@H](O)[C@H](Cc1ccccc1)NC(=O)OCc1ccccc1` [Example 58, 2-(t-Butyloxycarbonyl)amino-5S-(benzyloxycarbonyl)amino-4S-hydroxy-1-(4-biphenyl)-6-phenyl-2-azahexane] returned an IC50 of 18 nM. The inhibition at 0.018 µM on HIV-1 protease (setting [2]) was found to be 50%.
